Results as given in patent US11976280B2, “SMAC/Diablo inhibitors useful for treating cancer” (THE NATIONAL INSTITUTE FOR BIOTECHNOLOGY IN THE NEGEV LTD., priority 2017, dated 2024).
Non-standard residues stand in square brackets, D forms with d. No end group written: not given here. Dmt = Cc1cc(O)cc(C)c1C[C@H](N)C(=O)O; Orn = NCCC[C@H](N)C(=O)O; d = 2'-deoxy (DNA); m = 2'-O-methyl; r = 2'-OH (RNA)

What was measured:
A549 cells [1] = assay: SRB cell growth of A549 cells treated with peptide conjugates (Table 8); format: cell-based, human; conditions: 48 h in serum (10%) medium or 24 h serum-free, mean±SD (n=3)
Experimental: A549 cells were seeded in 96-well plate (5000 cells/well). After 24 h cells were incubated with each of the examined peptides at a concentration of 5, 10, or 30 μM for 48 h in a serum (10%) containing medium or for 24 h in a serum-free medium. Then, cells were washed with PBS, fixed with 10% trichloroacetic acid, and analyzed for cell growth using the SRB method described herein above. Cell growth with no addition of a peptide was taken as a control (100% cell growth). Table 8 presents the cell growth in the presence of the peptide as % of control. Results are the mean±SD (n=3).

SMAC/Diablo = target: T1, SMAC/Diablo (Homo sapiens, UniProt Q9NR28); assay: Peptide array after pre-incubation of SMAC/Diablo with free peptide; format: binding; conditions: for SMAC/Diablo interaction with the corresponding array-bound peptide: SMAC 0.8 μM pre-incubated with free peptide 2.4 μM
T1 sequence (Q9NR28 22-239): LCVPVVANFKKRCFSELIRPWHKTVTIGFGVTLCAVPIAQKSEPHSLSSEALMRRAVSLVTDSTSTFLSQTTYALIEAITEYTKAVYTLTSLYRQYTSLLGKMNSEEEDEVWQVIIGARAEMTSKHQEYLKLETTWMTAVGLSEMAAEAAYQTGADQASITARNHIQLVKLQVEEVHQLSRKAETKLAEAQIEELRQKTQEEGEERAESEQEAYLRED
Experimental: The glass-bound peptide array described hereinabove was used. SMAC/Diablo (0.8 μM) was incubated with each of the peptides—2C18 (2.4 μM) and 1G12 (2.4 μM) for 2 hr at 24° C. and then incubated with the peptide array for 4 h at 4° C. Then the slides were washed and SMAC/Diablo antibodies (1:2000) were added, followed by incubation with HRP-conjugated anti-mouse IgG after which chemiluminescent spots were detected. Corresponding glass-bound peptide array incubated overnight with 0.8 μM free SMAC/Diablo, blotted with the same concentration of SMAC/Diablo antibodies followed by incubation with HRP-conjugated anti-mouse IgG served as a control. […] This is indicated by the decreased intensity or disappearance of chemiluminescence in the peptide spot position compared to the control (FIG. 16 and FIG. 17, respectively). Moreover, pre-incubation of SMAC/Diablo with peptide 2C18 decreased SMAC/Diablo interaction with the array-bound peptides 1M17 and 1N23 derived from Nuclear receptor subfamily 4 group A member 1 Protein (NR4A1) and peptide 1K20 derived from TNF receptor associated factor 2 Protein (TRAF2) (FIG. 16B, eliminated spots are circled).

A549 cells [2] = assay: SRB cell growth assay, si-hSMAC B-D and 2′-O-Me modified siRNAs; format: cell-based, human; conditions: 30 and 50 nM
Experimental: The siRNAs were synthesized by Genepharma (Suzhou, China). Cells were seeded (150,000 cells/well) on 6-well culture dishes to 40-60% confluence and transfected with 10-100 nM si-NT or si-hSMAC/Diablo using the JetPRIME transfection reagent (Illkirch, France), according to the manufacturers' instructions.
Twenty-four hours post-transfection with si-NT or si-hSMAC, cells (10,000/well) were counted and seeded in 96-well plates. After additional 48, 72 or 96 hours, the cells were washed with PBS, fixed with 10% trichloroacetic acid, and stained with SRB. SRB was extracted from the cells using 100 mM Tris base and absorbance at 510 nm was determined using an Infinite M1000 plate reader (Tecan, Männedorf, Switzerland).
si-hSMAC-A and si-hSMAC-B were modified by 2′-O methylation (2′-O Me) to form si-hSMAC-A1, si-hSMAC-A2 si-hSMAC-A3 si-hSMAC-A4 si-hSMAC-B1 si-hSMAC-B2 si-hSMAC-B3 and si-hSMAC-B4 described hereinabove. The effect of these modified forms on SMAC/Diablo expression and on cell proliferation was examined using 30 and 50 nM of each inhibitory RNA molecule in the lung cancer line A549.

[3] = pre-incubation with free peptide 2.4 μM

Substance | Cell growth, % of control (A549 cells [1]; peptide 5 μM) | Cell growth, % of control (A549 cells [1]; peptide 10 μM) | Cell growth, % of control (A549 cells [1]; peptide 30 μM) | reducing cell proliferation, ranking among modified molecules (A549 cells [2]) | other results
1G12-nuCPP: peptide conjugate targeted to nucleus, SEQ ID NO:70 (LIRKNRMALFQQLTCVLPILDNLLKR[dR]RK) | 109 ± 0.013 % of control | 76 ± 0.024 % of control | 39 ± 0.013 % of control |  | 
1H13-mtCPP-NH2: peptide conjugate targeted to mitochondria, SEQ ID NO:73 (SGCAFLSVKKQFEELTLGEFLKLD[dR][Dmt][Orn]F-NH2) | 85 ± 0.022 % of control | 60 ± 0.018 % of control | 49 ± 0.014 % of control |  | 
1H13-nuCPP: peptide conjugate targeted to nucleus, SEQ ID NO:69 (SGCAFLSVKKQFEELTLGEFLKLDR[dR]RK) | 92 ± 0.018 % of control | 57 ± 0.013 % of control | 30 ± 0.009 % of control |  | 
ANT-2C18 (MRQIKIWFQNRRMKWKVRFITKIWHPNISSVTGAICLDILK) | 127 ± 0.006 % of control | 145 ± 0.0162 % of control | 97 ± 0.011 % of control |  | 
LIRKNRMALFQQLTCVLPILDNLLK [1G12] |  |  |  |  | SMAC/Diablo interaction with the corresponding array-bound peptide (SMAC/Diablo): significantly decreased or even prevented; SMAC/Diablo interaction with array-bound 1G12, 1G13, 1H13 (BIRC5) and 2D9 (MAML2) (SMAC/Diablo; [3]): significantly reduced
TF-1G12: peptide conjugate targeted to cytosol, SEQ ID NO:76 (HAIYPRLIRKNRMALFQQLTCVLPILDNLLK; not fully specified) | 99 ± 0.004 % of control | 98 ± 0.005 % of control | 99 ± 0.005 % of control |  | 
VRFITKIWHPNISSVTGAICLDILK [2C18] |  |  |  |  | SMAC/Diablo interaction with the corresponding array-bound peptide (SMAC/Diablo): significantly decreased or even prevented; SMAC/Diablo interaction with array-bound peptides 1M17, 1N23 (NR4A1) and 1K20 (TRAF2) (SMAC/Diablo; [3]): decreased
mtCPP-2C18: peptide conjugate targeted to mitochondria, SEQ ID NO:74 ([dR][Dmt][Orn]FVRFITKIWHPNISSVTGAICLDILK) | 89 ± 0.005 % of control | 74 ± 0.004 % of control | 59 ± 0.004 % of control |  | 
nuCPP-1G12: peptide conjugate targeted to nucleus, SEQ ID NO:71 (R[dR]RKLIRKNRMALFQQLTCVLPILDNLLK) | 96 ± 0.012 % of control | 72 ± 0.01 % of control | 66 ± 0.009 % of control |  | 
si-hSMAC-A1: si-hSMAC-A with 2′-O-Me at sense positions 5, 10, 16, 21 (SEQ ID NO:28) and antisense 6, 12, 19 (SEQ ID NO:29) (sense AAGCGGUGUUUCUCAGAAUUGTT; antisense AACAAUUCUGAGAAACCCGCTT; sense: sugars from the 5' end rrrrmrrrrmrrrrrmrrrrmdd, backbone not given here; antisense: sugars from the 5' end rrrrrmrrrrrmrrrrrrmrdd, backbone not given here) |  |  |  | most active in reducing cell proliferation | 
si-hSMAC-A4: si-hSMAC-A with 2′-O-Me at sense positions 3, 6, 11, 21 (SEQ ID NO:34) and antisense 6, 19 (SEQ ID NO:35) (sense AAGCGGUGUUUCUCAGAAUUGTT; antisense AACAAUUCUGAGAAACCCGCTT; sense: sugars from the 5' end rrmrrmrrrrmrrrrrrrrrmdd, backbone not given here; antisense: sugars from the 5' end rrrrrmrrrrrrrrrrrrmrdd, backbone not given here) |  |  |  | most active in reducing cell proliferation | 
si-hSMAC-B2: si-hSMAC-B with 2′-O-Me at sense positions 4, 9, 13, 17 (SEQ ID NO:38) and antisense 6, 12, 18 (SEQ ID NO:39) (sense GCAGAUCAGGCCUCUAUAATT; antisense UUAUAGAGGCCUGAUCUGCTT; sense: sugars from the 5' end rrrmrrrrmrrrmrrrmrrdd, backbone not given here; antisense: sugars from the 5' end rrrrrmrrrrrmrrrrrmrdd, backbone not given here) |  |  |  | most active | 
si-hSMAC-B3: si-hSMAC-B with 2′-O-Me at sense positions 6, 10, 15 (SEQ ID NO:40) and antisense 2, 9, 17 (SEQ ID NO:41) (sense GCAGAUCAGGCCUCUAUAATT; antisense UUAUAGAGGCCUGAUCUGCTT; sense: sugars from the 5' end rrrrrmrrrmrrrrmrrrrdd, backbone not given here; antisense: sugars from the 5' end rmrrrrrrmrrrrrrrmrrdd, backbone not given here) |  |  |  | most active | 
